Experimental data: US11014908B2, “Chemical compounds” (Pfizer Inc., priority 2018, dated 2021)

Legend:
[1] = target: T1, HbS (Homo sapiens, UniProt P68871+P69905, E7V); assay: 'R'-'T' assay (conversion of oxy HbS to deoxy HbS under deoxygenating conditions); assay type: biochemical; details: 50% inhibition of HbS 'R'-'T' conversion; 3 uM HbS, <1% O2
T1 construct: HbS was obtained from the blood of homozygous S/S patients; from tissue; host or cells: red blood cells of homozygous S/S patients
Protocol: Conversion from oxy (R, relaxed state) to deoxy (T, tense state) HbS in the presence of compound was performed to determine the ability of compounds to stabilize the oxy (R) state under deoxygenating conditions. The assay run was similar to the ‘Oxygen dissociation assay’ described in Oksenberg et al, Br J Haematology, 2016, 175, 141-153.
Assay ready compound plates were prepared by first preparing a master serial dilution plate from a 30 mM initial compound stock in 100% DMSO. From this master serial dilution plate, 167 nL of the desired compound concentration was delivered to the assay ready plates using acoustical dispensing. Plates were frozen at −20° C. until needed. Purified HbS-O2 (i.e. oxy HbS) was diluted to 3 uM in 100 mM potassium phosphate buffer, pH=7.4. 50 uL of 3 uM stock solution was added to each well of the assay ready plate and mechanically mixed eight times. Following mixing the plates were covered and incubated at room temperature for one hour with moderate shaking. Following incubation, the plates were placed in a deoxygenated environment (<1% O2) for two hours, and the conversion to deoxy HbS monitored as a function of time. Oxygenated and deoxygenated forms of hemoglobin were detected using the absorbance of the Soret peaks at 415 and 430 nm respectively, and absorbance measurements (optical density, OD) were taken at 0, 90 and 120 minutes. Background absorbance for correction was collected at 700 nm.
Data were analyzed by first subtracting baseline absorbance at 700 nm from 415 nm and 430 nm data at each timepoint, and then taking the ratio of 415/430 nm data (Ratio=[(OD415−OD700)/(OD430−OD700)]. The effect at each timepoint was calculated using the ratios from the previous calculation at time 0 and each time point of interest (Effect^time x=Ratio^time x/Ratio^time 0). Percent effect was calculated by comparing the effects of compound versus HbS only with the effects observed by the positive control compound tucaresol (percent effect=[(effect^time x compound−effect^time x HbS)/(effect^time x tucaresol−effect^time x HbS)]×100). Data were reported as the percent effect for a single point. Calculations to determine the concentration of compound for 50% inhibition (IC50 (uM)) of the HbS ‘R’-‘T’ conversion were based on the percent effect at varying compound concentration.

[2] = target: T2, purified sickle cell hemoglobin (HbS) (Homo sapiens, UniProt P68871+P69905, E7V); assay: Binding affinity to purified HbS by Surface Plasmon Resonance (SPR); details: crosslinked biotinylated HbS, 1:1 binding model
T2 construct: HbS was obtained from the blood of homozygous S/S patients; from tissue; host or cells: red blood cells of homozygous S/S patients
Protocol: Binding Affinity, Kd (uM)
The binding affinity for compounds to purified sickle cell hemoglobin (HbS) was determined using Surface Plasmon Resonance (SPR). Patient Sickle Cell blood was obtained from Boston Children's Hospital in accordance with Institutional Review Board protocols. HbS was obtained from the blood of homozygous S/S patients, and purified using the method described in: Antonini and Brunori, Hemoglobin and Myoglobin in their Reactions with Ligands. Amsterdam, London, North-Holland Publishing Company, 1971. Whole blood was separated into red blood cell and plasma components by centrifugation, after which the plasma was decanted and discarded. Packed red blood cells were washed with normal saline (0.9% NaCl) and then lysed by 2:1 dilution with cold deionized water. The hemolysate was centrifuged to remove cellular debris, and further purified with the addition of Drabkin's Buffer (2.8 M potassium phosphate), and centrifugation with Celite®. Organic phosphates (2,3-BPG) were removed via gel filtration with Sephadex® G-25. HbS and wild-type hemoglobin, hemoglobin A (HbA), were separated by […], using diethylaminoethyl (DEAE)-Sepharose® fast flow, and eluted using a pH gradient from pH 8.5-pH 7.5. Purity of the resulting HbS and HbA was determined by native gel electrophoresis and HbS fractions used further.
To stabilize the tetrameric structure of hemoglobin, HbS was crosslinked between the beta subunits (Lys82-Lys82) using bis(3,5-dibromosalicyl) fumarate, as described in: Shibayama N. et al, J Am Chem Soc 2014, 136, 13, 5097-5105 and Shibayama N. et al, Biochemistry 1991, 39, 33, 8158-8165). Crosslinked HbS was subsequently biotynylated and captured on a custom made Streptavidin sensor to achieve protein density of 4000 to 5000 resonance units (RUs) on the surface. Compound binding to HbS using SPR was tested on Sierra Sensors MASS-1 instrument. The running buffer contained 100 mM Potassium Phosphate, pH 7.5, 0.005% Tween-20, 1 mM ethylenediaminetetraacetic acid (EDTA), 0.1 mg/mL bovine serum albumin with 1% DMSO. Compound samples were injected at a flow rate of 30 μL/min for 2 minutes association and at least 5 minutes of dissociation time. A 2- or 3-fold dilution series containing at least 4 concentrations were tested for each compound. The dose range was selected based on the activity of the compounds in biochemical assays, when available. Multiple blank injections of running buffer were run before and after each compound series to allow blank subtraction for compound data in the analysis software. Positive controls were run in each experiment to monitor and maintain the activity of HbS on the surface. A DMSO curve was run at the beginning of each data set to apply an excluded volume correction to the data during analysis. The data were processed and analyzed using Sierra Sensors and Scrubber 2.0 software. The binding affinities (dissociation constant Kd) were calculated by fitting the sensorgrams to a 1:1 binding model.

Structure (SMILES) | IC50 [1] | Kd [2]
Cc1cc2nc(N)c(O[C@@H](C)c3nc(O)ccc3-n3cccn3)cc2cn1 [Example 46, 6-{(1S)-1-[(2-amino-7-methyl-1,6-naphthyridin-3-yl)oxy]ethyl}-5-(1H-pyrazol-1-yl)pyridin-2-ol] | 5.22 µM | 0.102 µM
C[C@H](Oc1cc2ncccc2nc1N)c1nc(O)ccc1-n1cccn1 [Example 47, 6-{(1S)-1-[(2-amino-1,5-naphthyridin-3-yl)oxy]ethyl}-5-(1H-pyrazol-1-yl)pyridin-2-ol] | 6.32 µM | 0.384 µM
C[C@H](Oc1cc2ncc(F)cc2nc1N)c1nc(O)ccc1-n1cccn1 [Example 48, 6-{(1S)-1-[(2-amino-7-fluoro-1,5-naphthyridin-3-yl)oxy]ethyl}-5-(1H-pyrazol-1-yl)pyridin-2-ol] | 4.71 µM | 0.253 µM
C[C@H](Oc1cc2cc(CO)ccc2nc1N)c1nc(O)ccc1-n1cccn1 [Example 49, 6-[(1S)-1-{[2-amino-6-(hydroxymethyl)quinolin-3-yl]oxy}ethyl]-5-(1H-pyrazol-1-yl)pyridin-2-ol] | 6.39 µM | 0.178 µM
C[C@H](Oc1cc2cc(C(C)(C)O)ccc2nc1N)c1nc(O)ccc1-n1cccn1 [Example 50, 6-[(1S)-1-{[2-amino-6-(2-hydroxypropan-2-yl)quinolin-3-yl]oxy}ethyl]-5-(1H-pyrazol-1-yl)pyridin-2-ol] | 100 µM | 1.33 µM
C[C@H](Oc1cc2cc([C@@H](C)O)ccc2nc1N)c1nc(O)ccc1-n1cccn1 [Example 51, 6-[(1S)-1-({2-amino-6-[(1R)-1-hydroxyethyl]quinolin-3-yl}oxy)ethyl]-5-(1H-pyrazol-1-yl)pyridin-2-ol] | 52.1 µM | 6.88 µM
C[C@H](O)c1ccc2nc(N)c(O[C@@H](C)c3nc(O)ccc3-n3cccn3)cc2c1 [Example 52, 6-[(1S)-1-({2-amino-6-[(1S)-1-hydroxyethyl]quinolin-3-yl}oxy)ethyl]-5-(1H-pyrazol-1-yl)pyridin-2-ol] | 100 µM | 10 µM
Cc1ccc2nc(N)c(O[C@@H](C)c3nc(O)ccc3-n3cccn3)cc2n1 [Example 54, 6-{(1S)-1-[(2-amino-6-methyl-1,5-naphthyridin-3-yl)oxy]ethyl}-5-(1H-pyrazol-1-yl)pyridin-2-ol] | 11.2 µM | 0.892 µM
C[C@H](Oc1cc2cc(C(N)=O)ccc2nc1N)c1nc(CO)ccc1-n1cccn1 [Example 55, 2-amino-3-{(1S)-1-[6-(hydroxymethyl)-3-(1H-pyrazol-1-yl)pyridin-2-yl]ethoxy}quinoline-6-carboxamide] | 5.71 µM | 0.406 µM
COc1ccc(-n2cccn2)c([C@H](C)Oc2cc3cc(F)cc(F)c3nc2N)n1 [Example 56, 6,8-difluoro-3-{(1S)-1-[6-methoxy-3-(1H-pyrazol-1-yl)pyridin-2-yl]ethoxy}quinolin-2-amine] | 5.68 µM | 0.053 µM
COc1ccc(-n2cccn2)c([C@H](C)Oc2cc3cc(F)ccc3nc2N)n1 [Example 57, 6-fluoro-3-{(1S)-1-[6-methoxy-3-(1H-pyrazol-1-yl)pyridin-2-yl]ethoxy}quinolin-2-amine] | 4.84 µM | 0.184 µM
C[C@H](Oc1cc2cc(F)ccc2nc1N)c1cc2[nH]cnc2cc1-n1cccn1 [Example 63, 6-fluoro-3-{(1S)-1-[5-(1H-pyrazol-1-yl)-1H-benzimidazol-6-yl]ethoxy}quinolin-2-amine] | 8.36 µM | 0.152 µM
Cc1nc2cc(-n3cccn3)c([C@H](C)Oc3cc4cc(F)ccc4nc3N)cc2[nH]1 [Example 64, 6-fluoro-3-{(1S)-1-[2-methyl-5-(1H-pyrazol-1-yl)-1H-benzimidazol-6-yl]ethoxy}quinolin-2-amine] | 5.73 µM | 0.22 µM

Further molecules by falling IC50 [1], results first:

IC50 [1] | Kd [2] | Structure (SMILES)
4.67 µM | 0.01 µM | C[C@H](Oc1cc2cc(F)cc(F)c2nc1N)c1cc2c(cnn2CC(=O)O)cc1-n1cccn1 [Example 69, [6-{(1S)-1-[(2-amino-6,8-difluoroquinolin-3-yl)oxy]ethyl}-5-(1H-pyrazol-1-yl)-1H-indazol-1-yl]acetic Acid]
4.61 µM | 0.015 µM | C[C@H](Oc1cc2cc(F)ccc2nc1N)c1nc2[nH]ncc2cc1-n1cccn1 [Example 68, 6-fluoro-3-{(1S)-1-[5-(1H-pyrazol-1-yl)-1H-pyrazolo[3,4-b]pyridin-6-yl]ethoxy}quinolin-2-amine]
4.61 µM | 0.048 µM | C[C@H](Oc1cc2cc(F)ccc2nc1N)c1cc2nn(CC(=O)O)cc2cc1-n1cccn1 [Example 71, [6-{(1S)-1-[(2-amino-6-fluoroquinolin-3-yl)oxy]ethyl}-5-(1H-pyrazol-1-yl)-2H-indazol-2-yl]acetic Acid]
4.6 µM | 0.013 µM | C[C@H](Oc1cc2cc(F)ccc2nc1N)c1cc2c(cnn2CC(N)=O)cc1-n1cccn1 [Example 70, 2-[6-{(1S)-1-[(2-amino-6-fluoroquinolin-3-yl)oxy]ethyl}-5-(1H-pyrazol-1-yl)-1H-indazol-1-yl]acetamide]
4.51 µM | 0.02 µM | C[C@H](Oc1cc2cc(F)ccc2nc1N)c1cc2c(cnn2CCO)cc1-n1cccn1 [Example 73, 2-[6-{(1S)-1-[(2-amino-6-fluoroquinolin-3-yl)oxy]ethyl}-5-(1H-pyrazol-1-yl)-1H-indazol-1-yl]ethanol]
4.25 µM | 0.016 µM | C[C@H](Oc1cc2cc(F)cc(F)c2nc1N)c1[nH]c(=O)ccc1-n1cccn1 [Example 53, 6-{(1S)-1-[(2-amino-6,8-difluoroquinolin-3-yl)oxy]ethyl}-5-(1H-pyrazol-1-yl)pyridin-2-ol]
4.11 µM | 0.055 µM | C[C@H](Oc1cc2cc(F)c(Cl)cc2nc1N)c1cc2[nH]ncc2cc1-n1cccn1 [Example 60, 7-chloro-6-fluoro-3-{(1S)-1-[5-(1H-pyrazol-1-yl)-1H-indazol-6-yl]ethoxy}quinolin-2-amine]
3.71 µM | 0.009 µM | C[C@H](Oc1cc2cc(F)ccc2nc1N)c1cc2c(cnn2CC(=O)O)cc1-n1cccn1 [Example 67, [6-{(1S)-1-[(2-amino-6-fluoroquinolin-3-yl)oxy]ethyl}-5-(1H-pyrazol-1-yl)-1H-indazol-1-yl]acetic Acid]
3.03 µM | 0.011 µM | C[C@H](Oc1cc2cc(F)cc(F)c2nc1N)c1cc2c(cnn2CCO)cc1-n1cccn1 [Example 72, 2-[6-{(1S)-1-[(2-amino-6,8-difluoroquinolin-3-yl)oxy]ethyl}-5-(1H-pyrazol-1-yl)-1H-indazol-1-yl]ethanol]
